Here are results for 1 compound from BindingDB's records for patent US20230416245 (Biointervene, 2023).

The target in the test is T1, Adenosine receptor A3 (Homo sapiens, UniProt P0DMS8).
T1 sequence (P0DMS8 whole entry): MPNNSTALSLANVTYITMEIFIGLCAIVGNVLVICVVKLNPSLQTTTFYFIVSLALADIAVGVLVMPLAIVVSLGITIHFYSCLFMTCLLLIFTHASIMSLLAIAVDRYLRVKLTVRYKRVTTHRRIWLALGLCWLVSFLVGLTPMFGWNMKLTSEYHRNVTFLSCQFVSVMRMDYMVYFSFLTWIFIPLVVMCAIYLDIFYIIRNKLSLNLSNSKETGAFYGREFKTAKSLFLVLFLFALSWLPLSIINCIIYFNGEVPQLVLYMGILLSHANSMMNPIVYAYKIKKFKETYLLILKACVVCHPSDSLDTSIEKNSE
As to the kind of experiment: Adenosine Receptor Binding Assay. As for the experimental part:
Radioligand-binding assays were performed using the adenosine A3 receptor agonist [125I]-AB-MECA and the A1 receptor agonist [3H]CCPA. Binding assays were conducted in a total volume of 100 μL containing a 50 mM Tris, pH 7.4 buffer with or without 10 mM MgCl2, 20 μg membranes and either 0.15 nM [125I]-AB-MECA (for the A3 receptor) or 1 nM [3H]CCPA (for the A1 receptor). Assays were conducted at room temperature for 60 min (A1 receptor) or 120 min (A3 receptor) and terminated by the addition of 2 ml of ice-cold wash buffer (50 mM Tris, pH 7.4 with or without 10 mM MgCl2) and rapid filtration over 0.03% polyethylenimine-treated Whatman GF/C filters using a Brandel cell harvester (Semat International Ltd., St Albans, UK). Filters were then washed three times with 2 ml of ice-cold buffer. The filter-bound radioactivity were counted using a Compugamma counter (LKB Wallac, Turku, Finland). Competition experiments were performed to investigate the ability of reference compounds and embodiments of the invention to inhibit [125I]-AB-MECA binding. Non-specific binding were determined using the respective compound at its highest concentration

Consider `CCNc1cc(Cl)nc2c1ncn2[C@H]1[C@H](O)[C@H](O)[C@]2(C(=O)NC)C[C@H]12` [US20230416245, Compound 59], for which the affinity, expressed as Ki, was 0.23 nM.

In general, Ki refers to a dissociation constant, usually derived from enzyme kinetics or from competition with a known ligand. Low readings indicate tighter binding, high ones weaker binding.
